Assay [1] deals with antigen-induced arthritis (knee joint). Nature of the assay: Antigen-induced arthritis of rats: lateral joint diameter of the right knee joint after intraarticular injection. Conditions: short-term experiment, 0.05 ml intraarticular on day 1. It is filed as in vivo, rat (female Wistar).
Assay [2] has the same test system. The description is as above. Conditions: for Joint diameter (right), Day 0: day 0, joint diameter before induction of arthritis (baseline); for Joint diameter (right), day 1, difference with respect to day 0 / Joint diameter (right), measured value on day 1: day 1 after induction; for Increase of joint diameter (right) from day 0 to day 1: day 1, increase after induction, before treatment takes effect. Also on record: Joint diameter (right), Day 0: unit not given here. The assay is classed as in vivo, rat (female Wistar). The procedure:
The animal model employed, antigen-induced arthritis of rats, is a well established animal model which reflects the mechanisms of rheumatoid arthritis (RA) very well. […] Female Wistar rats are employed for this experiment. At an interval of one week, the animals are subcutaneously preimmunized with 0.1 mg of methylalbumin (mBSA) in Freund's complete adjuvant. Two weeks after the second immunization, 0.1 mg of mBSA is injected intraarticularly into the […] knee joint. This injection induces arthritis, which persists for weeks after an acute phase. One day after the induction of the arthritis, the treatment is begun with sulfated hyaluronic acid solution or with high molecular weight hyaluronic acid (MW=1,800 kD), which are injected intraarticularly into the knee joint. The immunization of the animals was effected at an interval of 7 days. In the first immunization, a total of four subcutaneous injections of 0.25 ml each (corresponding to 0.1 mg of methylalbumin in Freund's complete adjuvant) were effected on both sides of the vertebral column at the level of the shoulder blade and above the hip (each at about 1.5 cm distance from the spines of the vertebrae). In the 2nd immunization, 3 depots of 0.3 ml of solution each were introduced; one exactly between the two shoulder blades and two at the level of the abdomen on both sides paravertebrally. The induction of arthritis was effected two weeks after the 2nd immunization by […] injection of 0.05 ml each of a 10 mg/ml solution of mBSA in physiological saline into the respective right knee joint. On the day after induction of arthritis, 0.05 ml each of a formulation containing sulfated HA was injected into the right knee joint of the 20 animals of the experimental group (use of an insulin syringe, thin cannula, 0.35×40 mm). Thereafter, injection was effected once a week (long-term group). The lateral joint diameter of all animals was measured by means of a distance meter (Matatuyo) prior to and 1, 4 and 8 days after the induction of arthritis and then every week until the experiment was completed. The animals were also weighed each time. On the 7th day, 10 animals of the experimental group and 10 animals of the control group were killed. The animals were put down by ether anesthesia, and the sacrifice of the remaining animals was effected 1 week after the last injection of a formulation containing sulfated HA into the right knee joint.

The mark [3] stands for this setting: long-term experiment, intraarticular injection day 1, then once a week.
Setting [4] is: short-term experiment, 0.05 ml intraarticular on day 1.

sulfated hyaluronic acid [Sulfated HA]: the “Decrease or increase of joint diameter (right) after the injection on day 1, Day 8” value (“Decrease or increase of joint diameter … Day 8” below) in assay [1] is −118. Further, the “Joint diameters (as a measure of the inflammatory swelling), result in words” value in assay [2] (long-term experiment over 3 weeks) was “significant decrease of the joint diameters”. Moreover, in assay [2] (long-term experiment), the “Joint diameter (right), Day 0” value is 927.6; the “Joint diameter (right), day 1, difference with respect to day 0” value is “+226”; the “Joint diameter (right), measured value on day 1” value was found to be 1153.9. For the same substance, in assay [2] (setting [3]), the “Decrease or increase of joint diameter (right) after the injection on day 1, Day 4” value (“Decrease or increase of joint diameter … Day 4” for short) is listed as −4; the “Decrease or increase of joint diameter … Day 8” value was −127; the “Decrease or increase of joint diameter (right) after the injection on day 1, Day 15” value is −203; the “Decrease or increase of joint diameter (right) after the injection on day 1, Day 22” value was −212. Also, the “Decrease or increase of joint diameter (right) after the injection on day 1, Day 29” value in assay [2] (setting [3]) is −231. Besides, the “Decrease or increase of joint diameter … Day 4” value in assay [2] (setting [4]) is recorded as “+20”. In assay [2] (short-term experiment), the “Joint diameter (right), Day 0” value is 867.4 and the “Increase of joint diameter (right) from day 0 to day 1” value is “+228”.
Regarding “hyaluronic acid [HA, reference compound]”, the “Decrease or increase of joint diameter … Day 8” value in assay [1] was −45. In assay [2] (long-term experiment), the “Joint diameter (right), Day 0” value is 926.0; the “Joint diameter (right), day 1, difference with respect to day 0” value is on record as “+206”; the “Joint diameter (right), measured value on day 1” value was 1132.9. In assay [2] (setting [3]), the “Decrease or increase of joint diameter … Day 4” value is on record as “+27”; the “Decrease or increase of joint diameter … Day 8” value is given as −97; the “Decrease or increase of joint diameter (right) after the injection on day 1, Day 15” value is given as −140; the “Decrease or increase of joint diameter (right) after the injection on day 1, Day 22” value is on record as −144. The “Decrease or increase of joint diameter (right) after the injection on day 1, Day 29” value in assay [2] (setting [3]) is −134. Besides, in assay [2] (setting [4]), the “Decrease or increase of joint diameter … Day 4” value is listed as “+18”. Besides, in assay [2] (short-term experiment), the “Joint diameter (right), Day 0” value worked out at 913.2 and the “Increase of joint diameter (right) from day 0 to day 1” value is listed as “+206”.

These data come from patent US20040053885A1, “Use of hyaluronic acid derivatives for the prevention of inflammatory arthritis” (priority 2000, published 2004).
